Measured values: patent publication US12582721B2, “Molybdenum-based feed supplement for bees” (UNIVERSITE DE VERSAILLES—SAINT-QUENTIN-EN-YVELINES, priority 2020, dated 2026)

Assays:
[1] = test system: families of European domestic bees; test: 1st test in hives: morpho-productive characters; assay type: in vivo, Apis mellifera carpatica; settings: for Power of the bee family / Prolificity of the queen / Quantity of honey at the first harvest / Quantity of honey at the first harvest, change versus batch I: overall dose 2 mg per colony; for Power of the bee family / Prolificity of the queen / Quantity of honey at the first harvest: spring feeding, 10 hives; for Quantity of honey at the first harvest, change versus batch I: value in brackets; for Effects on the prolificity of the queen and the amount of honey collected compared to PPh4-Mo2O4-EDTA: 1st test, 2 mg per colony
Protocol: Biological field tests were performed on families of European domestic bees of the species Apis mellifera […] experimental apiary located in the […] forestry district (Republic of Moldova). Feeding with the complex of the invention took place in spring. The biological tests were monitored up to the month of September. To administer the compounds to the bees, a very small amount of bioactive substance was added to two types of sugary feeding products for bees: candy in the form of a paste (70% sucrose, 30% honey) or syrup (50% sucrose, 50% water). The bees were fed by adding the candy/syrup to the feeder located in the inner upper part of the hive. The volume of syrup was adjusted based on the number of bee frames at the initial time, more precisely 200 g of candy per frame and 100 mL of syrup per frame, that is 2 kg of candy and 1 L of syrup per hive of 10 frames. For the first feeding step, candy in the form of a paste was only given once. […] From the start of the test to the end (after the second harvest), all the bees were monitored for several key morpho-producing parameters that reflect the development level of the colony and the vital aspects of the bees. The parameters studied are: the prolificity of the queen (fertility), the power of the colonies, the production of honey and the production of wax. These parameters were monitored in line with the zootechnical standards concerning the assessment of bee families, breeding and certification of beekeeping parental material approved by government decision No. 306 dated Apr. 28, 2011 of the Republic of Moldova. The production of honey (in kg) was determined for each family of bees by adding the amount of honey produced (honey from supers), extracted during the harvest season, to the amount of honey built up in the honeycomb (brood chamber) and left as food for the bees for the winter period (brood honey). The amount of honey produced will be determined for each family, for each extraction, by weighing the frames/honeycomb before and after extraction (with an accuracy of 0.1 kg), the weight difference being the quantity of honey produced that was extracted. The amount of honey left in the honeycomb to feed the bees was determined at the autumn visit (September), by weighing the honey frames and deducting (from their total weight) the total weight of the standard honeycomb frames; for […] type frames (435×300 mm)-0.6 kg, for Langstroth frames (435×230 mm)-0.5 kg. The power of the bee colony represents the number of bees present in the honeycomb at the time of the assessment. The assessment is performed three times per year: at the spring visit (March-April), at the end of spring (20-31 May) and at the visit in autumn (September). After these three assessments, the average power of the bee family is determined. The amount of bees (kg) is determined by multiplying the number of intervals between the frames, uniformly occupied by the bees, by the coefficient 0.25 for the standard […] frame (435×300 mm) and by 0.2 for the standard Langstroth frame (435×230 mm). The prolificity of the queen (eggs/24 hours) is determined during the visit at the end of the spring (20-31 May) by dividing the number of cells with the brood by 12 (duration of development of the brood, days), the number of eggs laid in 24 hours. The number of cells in the honeycomb is determined using the Netz frame by measuring the number of squares (5×5 cm) occupied by the brood, which is multiplied by 100, to give the total number of cells with the brood covered. The molecules tested, their concentration in solution and their annual overall doses are listed below: • 1. […] The concentration of the complex in the syrup: 1.5×10^-7 mol/L. Overall and annual product dose: 2 mg of complex per colony • 2. […] The concentration of the complex in syrup: 3.0×10^-7 mol/L. Overall and annual product dose: 2 mg of complex per colony • 3. […] Overall and annual product dose: 2 mg of complex per colony • 4. […]

[2] = test system: HeLa, BxPC-3 and MDCK cells; settings: BxPc-3 and HeLa
Text: (§1) For cell culture, human cervical epithelial cells of the HeLa line, human epithelial pancreatic adenocarcinoma cells of the BxPC-3 line and healthy Madin-Darby canine kidney epithelial cells of the MDCK line were used in this study. The Resazurin cell proliferation test was applied according to the literature (S. Anoopkumar-Dukie, J. B. Carey, T. Conere, E. O'Sullivan, F. N. van Pelt, A. Allshire, Br J Radiol 2005, 78, 945, DOI: 10.1259/bjr/54004230). As an indicator of the effectiveness of the experimental compounds on cell proliferation, the median inhibitory concentration (IC50) was used. The lower the IC50 value, the higher the activity (in this case, the cytotoxicity).

[3] = test system: human cervical epithelial cells of the HeLa line; test: Resazurin cell proliferation test, HeLa cells; assay type: cell-based; settings: cervical cancer cells; IC50 equal to and greater than 100 μM considered no activity
Text: as §1
(§2) Five formula I complexes were tested in this study in comparison to two reference anti-cancer compounds (“Cisplatin” and Doxorubicin complex).

[4] = test system: healthy Madin-Darby canine kidney epithelial cells of the MDCK line; test: Resazurin cell proliferation test, MDCK cells; assay type: cell-based; settings: healthy cells; IC50 equal to and greater than 100 μM considered no activity
Text: as §1, §2

[5] = test system: bee families; settings: feeding method of MD4438; cited from earlier work

Compound	Power of the bee family [1]	Prolificity of the queen [1]	Quantity of honey at the first harvest [1]	Quantity of honey at the first harvest, change versus batch I [1]	Cytotoxicity, conclusion from Table 1 [2]	IC50, HeLa [3]	IC50, MDCK [4]	Effects on the prolificity of the queen and the amount of honey collected compared to PPh4-Mo2O4-EDTA [1]	IC50 [3] [µM]	Effect on queens and bee families [5]	IC50 [4] [µM]
CC(=O)[O-].[Li+] [Li—Ac, LiCH3COO·H2O, reference compound]	98.3 % relative to batch I	108.8 % relative to batch I	122.9 % relative to batch I	+22.9%							
O.O.O.O.O.O.O=C([O-])CN(CCN(CC(=O)[O-])CC(=O)[O-])CC(=O)[O-].[Li+].[Li+].[O]=[Mo+]12[O][Mo+]1(=[O])[O]2 [Li—Mo2O4-EDTA, Li2[Mo2O4 (EDTA)]·6H2O]	103.3 % relative to batch I	111.7 % relative to batch I	143.1 % relative to batch I	+43.1%	no cytotoxicity	Inactive	Inactive	higher effects			
O.O.O.O.O.O=C([O-])CN(CCN(CC(=O)[O-])CC(=O)[O-])CC(=O)[O-].[Na+].[Na+].[O]=[Mo+]12[O][Mo+]1(=[O])[O]2 [Na—Mo2O4-EDTA, Na2[Mo2O4 (EDTA)]·5H2O]	101.2 % relative to batch I	113.3 % relative to batch I	149.9 % relative to batch I	+49.9%	no cytotoxicity	Inactive	Inactive	higher effects			
O=C([O-])CN(CCN(CC(=O)[O-])CC(=O)[O-])CC(=O)[O-].[O]=[Mo+]12[O][Mo+]1(=[O])[O]2.c1ccc([P+](c2ccccc2)(c2ccccc2)c2ccccc2)cc1.c1ccc([P+](c2ccccc2)(c2ccccc2)c2ccccc2)cc1 [PPh4—Mo2O4-EDTA, (PPh4)2[Mo2O4 (EDTA)]·2.5H2O]	102.1 % relative to batch I	107.1 % relative to batch I	113.3 % relative to batch I	+13.3%					≥ 100	stimulating the oogenesis functions of the queens, increasing the amount of larvae, improving the quantitative development of the bee families and increasing productivity thereof	60.7 ± 12.1
